Measured values from ChEMBL document CHEMBL3885881, “DrugMatrix”.

Species on record: Rattus norvegicus
Assay: DrugMatrix - Regimen: Daily Repeat
Type: toxicity, organism-based, Sprague-Dawley
Set-up: regimen Daily Repeat, gender Male, age 6-8 weeks
Settings: in vivo, po, route oral GAVAGE, […]; for ABSOLUTE BASOPHIL / ABSOLUTE EOSINOPHIL / ABSOLUTE LYMPHOCYTE / ABSOLUTE MONOCYTE / ABSOLUTE SEGMENTED NEUTROPHIL / BASOPHIL / EOSINOPHIL / ERYTHROCYTE COUNT / HEMATOCRIT / HEMOGLOBIN / LEUKOCYTE COUNT / LYMPHOCYTE / MEAN CORPUSCULAR HEMOGLOBIN / MEAN CORPUSCULAR HEMOGLOBIN CONCENTRATION / MEAN CORPUSCULAR VOLUME / MONOCYTE / NEUTROPHIL / NUCLEATED RED BLOOD CELLS / PLATELET COUNT: tissue Blood; for ALANINE AMINOTRANSFERASE / ALBUMIN / ALKALINE PHOSPHATASE / ASPARTATE AMINOTRANSFERASE / BLOOD UREA NITROGEN / CARBON DIOXIDE / CHLORIDE / CHOLESTEROL / CREATINE PHOSPHOKINASE / CREATININE / GLUCOSE / LACTATE DEHYDROGENASE / LIPASE / PHOSPHORUS / POTASSIUM / SODIUM / TOTAL BILIRUBIN / TOTAL PROTEIN / URIC ACID: tissue Plasma
[1] = 0 mg/kg, 72 h, dose level Control, time 3 day
[2] = 0 mg/kg, 120 h, dose level Control, time 5 day
[3] = 3 mg/kg, 72 h, dose level Low, time 3 day

CC#C[C@]1(O)CC[C@H]2[C@@H]3CCC4=CC(=O)CCC4=C3[C@@H](c3ccc(N(C)C)cc3)C[C@@]21C [MIFEPRISTONE]
ABSOLUTE BASOPHIL [1]: 0 CELLS/uL | ABSOLUTE EOSINOPHIL [1]: 14 CELLS/uL | ABSOLUTE LYMPHOCYTE [1]: 11144.67 CELLS/uL | ABSOLUTE MONOCYTE [1]: 22.5 CELLS/uL | ABSOLUTE SEGMENTED NEUTROPHIL [1]: 535.5 CELLS/uL | BASOPHIL [1]: 0% | EOSINOPHIL [1]: 0.17% | ERYTHROCYTE COUNT [1]: 5.08 x10E6/uL | HEMATOCRIT [1]: 32.32% | HEMOGLOBIN [1]: 12.87 G/DL | LEUKOCYTE COUNT [1]: 11.72 x10E3/uL | LYMPHOCYTE [1]: 94.67% | MEAN CORPUSCULAR HEMOGLOBIN [1]: 25.37 pg | MEAN CORPUSCULAR HEMOGLOBIN CONCENTRATION [1]: 39.85 G/DL | MEAN CORPUSCULAR VOLUME [1]: 63.58 fL | MONOCYTE [1]: 0.17% | NEUTROPHIL [1]: 5% | NUCLEATED RED BLOOD CELLS [1]: 0 /100WBC | PLATELET COUNT [1]: 1084 x10E3/uL | ALANINE AMINOTRANSFERASE [1]: 67.5 u/L | ALBUMIN [1]: 4.02 G/DL | ALKALINE PHOSPHATASE [1]: 374.17 u/L | ASPARTATE AMINOTRANSFERASE [1]: 83.5 u/L | BLOOD UREA NITROGEN [1]: 14.5 mg/dL | CARBON DIOXIDE [1]: 30 mmol/L | CHLORIDE [1]: 100.5 MEQ/L | CHOLESTEROL [1]: 71.33 mg/dL | CREATINE PHOSPHOKINASE [1]: 268.33 u/L | CREATININE [1]: 0.16 mg/dL | GLUCOSE [1]: 170.5 mg/dL | LACTATE DEHYDROGENASE [1]: 81.17 u/L | LIPASE [1]: 16.67 u/L | PHOSPHORUS [1]: 10.07 mg/dL | POTASSIUM [1]: 5.03 MEQ/L | SODIUM [1]: 142.92 MEQ/L | TOTAL BILIRUBIN [1]: 0.17 mg/dL | TOTAL PROTEIN [1]: 5.63 G/DL | URIC ACID [1]: 0.5 mg/dL | ABSOLUTE BASOPHIL [2]: 0 CELLS/uL | ABSOLUTE EOSINOPHIL [2]: 37.5 CELLS/uL | ABSOLUTE LYMPHOCYTE [2]: 8049.5 CELLS/uL | ABSOLUTE MONOCYTE [2]: 82.83 CELLS/uL | ABSOLUTE SEGMENTED NEUTROPHIL [2]: 646.83 CELLS/uL | BASOPHIL [2]: 0% | EOSINOPHIL [2]: 0.5% | ERYTHROCYTE COUNT [2]: 5.36 x10E6/uL | HEMATOCRIT [2]: 33.9% | HEMOGLOBIN [2]: 13.02 G/DL | LEUKOCYTE COUNT [2]: 8.82 x10E3/uL | LYMPHOCYTE [2]: 90.17% | MEAN CORPUSCULAR HEMOGLOBIN [2]: 24.32 pg | MEAN CORPUSCULAR HEMOGLOBIN CONCENTRATION [2]: 38.42 G/DL | MEAN CORPUSCULAR VOLUME [2]: 63.32 fL | MONOCYTE [2]: 1.17% | NEUTROPHIL [2]: 8.17% | NUCLEATED RED BLOOD CELLS [2]: 0.17 /100WBC | PLATELET COUNT [2]: 1231.5 x10E3/uL | ALANINE AMINOTRANSFERASE [2]: 62 u/L | ALBUMIN [2]: 3.97 G/DL | ALKALINE PHOSPHATASE [2]: 303.67 u/L | ASPARTATE AMINOTRANSFERASE [2]: 84.5 u/L | BLOOD UREA NITROGEN [2]: 14.83 mg/dL | CARBON DIOXIDE [2]: 31.83 mmol/L | CHLORIDE [2]: 97 MEQ/L | CHOLESTEROL [2]: 68.83 mg/dL | CREATINE PHOSPHOKINASE [2]: 411.33 u/L | CREATININE [2]: 0.16 mg/dL | GLUCOSE [2]: 170.17 mg/dL | LACTATE DEHYDROGENASE [2]: 88.5 u/L | LIPASE [2]: 9.5 u/L | PHOSPHORUS [2]: 9.98 mg/dL | POTASSIUM [2]: 5.72 MEQ/L | SODIUM [2]: 141.62 MEQ/L | TOTAL BILIRUBIN [2]: 0.1 mg/dL | TOTAL PROTEIN [2]: 5.67 G/DL | URIC ACID [2]: 0.52 mg/dL | ABSOLUTE BASOPHIL [3]: 0 CELLS/uL | ABSOLUTE EOSINOPHIL [3]: 0 CELLS/uL | ABSOLUTE LYMPHOCYTE [3]: 9937.33 CELLS/uL | ABSOLUTE MONOCYTE [3]: 98.67 CELLS/uL | ABSOLUTE SEGMENTED NEUTROPHIL [3]: 897.33 CELLS/uL | BASOPHIL [3]: 0% | EOSINOPHIL [3]: 0% | ERYTHROCYTE COUNT [3]: 4.8 x10E6/uL | HEMATOCRIT [3]: 31.67% | HEMOGLOBIN [3]: 12.47 G/DL | LEUKOCYTE COUNT [3]: 10.93 x10E3/uL | LYMPHOCYTE [3]: 91.33% | MEAN CORPUSCULAR HEMOGLOBIN [3]: 25.97 pg | MEAN CORPUSCULAR HEMOGLOBIN CONCENTRATION [3]: 39.4 G/DL | MEAN CORPUSCULAR VOLUME [3]: 66.03 fL | MONOCYTE [3]: 1% | NEUTROPHIL [3]: 7.67% | NUCLEATED RED BLOOD CELLS [3]: 0 /100WBC | PLATELET COUNT [3]: 1024.33 x10E3/uL | ALANINE AMINOTRANSFERASE [3]: 67 u/L | ALBUMIN [3]: 3.93 G/DL | ALKALINE PHOSPHATASE [3]: 384 u/L | ASPARTATE AMINOTRANSFERASE [3]: 83 u/L | BLOOD UREA NITROGEN [3]: 13 mg/dL | CARBON DIOXIDE [3]: 30.33 mmol/L | CHLORIDE [3]: 100.67 MEQ/L | CHOLESTEROL [3]: 68 mg/dL | CREATINE PHOSPHOKINASE [3]: 246.67 u/L | CREATININE [3]: 0.12 mg/dL | GLUCOSE [3]: 171 mg/dL | LACTATE DEHYDROGENASE [3]: 78.33 u/L | LIPASE [3]: 10 u/L | PHOSPHORUS [3]: 10.13 mg/dL | POTASSIUM [3]: 5.79 MEQ/L | SODIUM [3]: 143.5 MEQ/L | TOTAL BILIRUBIN [3]: 0.17 mg/dL | TOTAL PROTEIN [3]: 5.6 G/DL | URIC ACID [3]: 0.57 mg/dL
